How the values were obtained:
Format in all cases: in vivo, rat
naive rats (Wistar) [1] = assay: Open-field test (locomotor activity and anxiety); conditions: for drowsiness effect / overall activity level of the animals: open field over 2 hours, FENM even at high doses, memantine 10 mg/kg
Description: Thus, to test state anxiety, several animal models are commonly used and have been validated by numerous studies: • open field test: This consists of forcibly exposing the animal (rat or mouse) to a new environment and observing its behavior. […] Locomotor activity and behavior are then assessed by recording the number of crossings of the grid lines, the frequency of retreats, the number of entries and the time spent in the central squares. This animal model is considered a good model of “normal” anxiety when adapting to a new environment. It has good predictability of human response to treatment (L. Prut, European Journal of Pharmacology 463 (2003) 3-33). The open-field test is also useful, when it is prolonged (behavioral recording time over 2 hours), as it allows monitoring the motor activity of the animals and thus their state of wakefulness, whereas measurements at short times give information on anxiety. • the light-dark box test: another animal model of anxiety is based on the aversive properties of an open-field space and on the comparison of exploratory activities in a lit compartment and in a dark compartment under the influence of anxiolytic substances (M Bourin, European Journal of Pharmacology 463 (2003) 55-65). This paradigm is based on rodents' innate aversion to bright places and on rodents' spontaneous exploratory behavior in response to stressful environments (new environment or light). The test device is divided into two compartments, one is small, dark and safe, the second is large, bright and stressful. This paradigm allows the prediction of anxiolytic or anxiogenic drug-like activities in mice. Passages between each compartment are a cue of exploration activity, while the time spent in each compartment reflects aversion. Anxiolytics, effective in humans, classic (benzodiazepines) as well as more recent anxiolytic compounds (serotonergic drugs or drugs acting on neuropeptide receptors) can be detected by this animal model which has the advantage of being simple and quick to use. • The open-field test with light gradient: the two models described above can be judiciously coupled in order to check the anxiolytic potential of a molecule, by eliminating the “burrow” effect induced by the presence of the dark compartment.
(§1) In the following examples, the effects of memantine, propranolol and fluoroethylnormemantine (FENM, the subject of the present invention) are studied in naive rats (Wistar) subjected to various tests related to depression or anxiety and then compared.
(§2) The test substances are administered to rats intraperitoneally in a volume of 5 ml/kg, 30 minutes before the behavioral tests are performed.
(§3) The injected solutions contain either of the molecules in the form of one of their salts, a hydrochloride (memantine·HCl and FENM·HCl) for the nitrogen derivatives and as such for propranolol, at the concentrations indicated below in a mixture of 95% (NaCl 0.9% ww in water)/5% ethanol. In each experiment, the dose per kilogram is referenced.
In this way, the animals are given a constant volume of solution (to the nearest difference in weight) equal to 5 ml/kg, or 1.5 ml for a 300 g rat.
(§4) For each paradigm, and each solution tested, 12 rats are subjected to injection and behavioral testing. The control solution is a saline solution.
• Open-field test: The locomotor activity of the animals and the “normal” anxiety associated with the discovery of an unknown environment are measured in an open field using a video monitoring system for 2 hours, 30 minutes after the injection of the solutions to be tested. The recorded data include, with a reading every 5 minutes, the time spent in the central squares, vertical activity, and the number of displacements.

naive rats (Wistar) [2] = assay: Forced swimming test; conditions: for Rat behavior over the period of time 1 to 6 minutes: frenetic movement / Rat behavior over the period of time 1 to 6 minutes: immobility (ies): second day, 30 min before; for Rat behavior over the period of time 1 to 6 minutes: immobility (ies): in s; for immobility time compared with control: all dose levels, particularly 10 mg/kg, p<0.001
Description: • the forced swimming test: This test has been used for a number of years with rats or mice to test the activity of antidepressants (F. Borsini, Psychopharmacology (1988) 94:147-160) and consists of placing the animal in a bowl filled with room-temperature water. After 15 minutes (pre-test session), the animal is taken out of the water and dried. Twenty-four hours later, the animal is again exposed to the previous conditions and the time of total immobility for a period of 5 minutes is recorded (test session). The animal is considered immobile when it performs only the movements necessary to keep its head out of the water. This immobility is easier to assess in rats than in mice, which have less explicit movements.
as §1, §2, §3
In the forced swimming test, rats (12 per group) are forced to swim in a tank filled with 23° C. water (10 minutes on the first day to allow for habituation to the medium and 6 minutes on the second day).
The behavior of the rats (stopping swimming, decreasing activity) is quantified by a video monitoring system.
The therapeutic solutions to be tested are administered on the second day 30 minutes before the experiment.

naive rats (Wistar) [3] = assay: Light-dark box test
Description: as §1, §2, §3, §4
In this example the light-dark box test was used. As it is based on rodents' innate aversion to light, the increase in time spent in the lighted compartment is therefore considered to reflect a lower level of anxiety.
The box used for this test is divided into a white behavior with high-power illumination (600 lux) and a black behavior with a lid (about 5 lux). The number of entries and the time spent in the illuminated compartment (anxiety zone) are recorded for 10 minutes by a video monitoring system. In addition, the system makes it possible to differentiate the periods between 0 and 5 minutes and between 5 and 10 minutes.

[4] = 10 mg/kg i.p., 30 min before test, 0-5 min

NC12CC3CC(C1)CC(CCF)(C3)C2
Mean time spent in the central squares per time interval (naive rats (Wistar) [1]; 5 mg/kg i.p., 30 min before test, 0-5 min): 128.8 s | Vertical activity (naive rats (Wistar) [1]; 5 mg/kg i.p., 0-5 min): 40.67 | Mean time spent in the central squares per time interval (naive rats (Wistar) [1]; 5 mg/kg i.p., 0-10 min): 216.8 s | Vertical activity (naive rats (Wistar) [1]; 5 mg/kg i.p., 0-10 min): 71.17 | Mean time spent in the central squares per time interval (naive rats (Wistar) [1]; 5 mg/kg i.p., 0-120 min): 1563.6 s | Number of displacements (naive rats (Wistar) [1]; 5 mg/kg i.p., 0-120 min): 1600 | Vertical activity (naive rats (Wistar) [1]; 5 mg/kg i.p., 0-120 min): 136.00 | Mean time spent in the central squares per time interval (naive rats (Wistar) [1]; 5 mg/kg i.p., 5-10 min): 88.0 s | Vertical activity (naive rats (Wistar) [1]; 5 mg/kg i.p., 5-10 min): 30.50 | Mean time spent in the central squares per time interval (naive rats (Wistar) [1]; [4]): 116.8 s | Vertical activity (naive rats (Wistar) [1]; 10 mg/kg i.p., 0-5 min): 52.33 | Mean time spent in the central squares per time interval (naive rats (Wistar) [1]; 10 mg/kg i.p., 0-10 min): 226.7 s | Vertical activity (naive rats (Wistar) [1]; 10 mg/kg i.p., 0-10 min): 86.42 | Mean time spent in the central squares per time interval (naive rats (Wistar) [1]; 10 mg/kg i.p., 0-120 min): 1803.8 s | Number of displacements (naive rats (Wistar) [1]; 10 mg/kg i.p., 0-120 min): 1800 | Vertical activity (naive rats (Wistar) [1]; 10 mg/kg i.p., 0-120 min): 173.75 | Mean time spent in the central squares per time interval (naive rats (Wistar) [1]; 10 mg/kg i.p., 5-10 min): 109.9 s | Vertical activity (naive rats (Wistar) [1]; 10 mg/kg i.p., 5-10 min): 34.08 | Mean time spent in the central squares per time interval (naive rats (Wistar) [1]; 20 mg/kg i.p., 30 min before test, 0-5 min): 129.8 s | Vertical activity (naive rats (Wistar) [1]; 20 mg/kg i.p., 0-5 min): 47.33 | Mean time spent in the central squares per time interval (naive rats (Wistar) [1]; 20 mg/kg i.p., 0-10 min): 235.7 s | Vertical activity (naive rats (Wistar) [1]; 20 mg/kg i.p., 0-10 min): 66.58 | Mean time spent in the central squares per time interval (naive rats (Wistar) [1]; 20 mg/kg i.p., 0-120 min): 1692.8 s | Number of displacements (naive rats (Wistar) [1]; 20 mg/kg i.p., 0-120 min): 2100 | Vertical activity (naive rats (Wistar) [1]; 20 mg/kg i.p., 0-120 min): 208.92 | Mean time spent in the central squares per time interval (naive rats (Wistar) [1]; 20 mg/kg i.p., 5-10 min): 105.9 s | Vertical activity (naive rats (Wistar) [1]; 20 mg/kg i.p., 5-10 min): 19.25 | drowsiness effect / overall activity level of the animals (naive rats (Wistar) [1]): does not generate the drowsiness effect | Rat behavior over the period of time 1 to 6 minutes: frenetic movement (naive rats (Wistar) [2]; 1 mg/kg i.p.): 43.2 s | Rat behavior over the period of time 1 to 6 minutes: immobility (ies) (naive rats (Wistar) [2]; 1 mg/kg i.p.): 157.8 | Rat behavior over the period of time 1 to 6 minutes: frenetic movement (naive rats (Wistar) [2]; 3 mg/kg i.p.): 47.6 s | Rat behavior over the period of time 1 to 6 minutes: immobility (ies) (naive rats (Wistar) [2]; 3 mg/kg i.p.): 164.3 | Rat behavior over the period of time 1 to 6 minutes: frenetic movement (naive rats (Wistar) [2]; 10 mg/kg i.p.): 60.6 s | Rat behavior over the period of time 1 to 6 minutes: immobility (ies) (naive rats (Wistar) [2]; 10 mg/kg i.p.): 140.5 | immobility time compared with control (naive rats (Wistar) [2]): very significant (p<0.001) decrease | Time spent in the lighted compartment (naive rats (Wistar) [3]; 1 mg/kg i.p., 0-5 min): 42.4 s | Time spent in the lighted compartment (naive rats (Wistar) [3]; 1 mg/kg i.p., 0-10 min): 71.0 s | Time spent in the lighted compartment (naive rats (Wistar) [3]; 1 mg/kg i.p., 5-10 min): 28.6 s | Time spent in the lighted compartment (naive rats (Wistar) [3]; 3 mg/kg i.p., 0-5 min): 34.4 s | Time spent in the lighted compartment (naive rats (Wistar) [3]; 3 mg/kg i.p., 0-10 min): 67.5 s | Time spent in the lighted compartment (naive rats (Wistar) [3]; 3 mg/kg i.p., 5-10 min): 33.2 s | Time spent in the lighted compartment (naive rats (Wistar) [3]; 10 mg/kg i.p., 0-5 min): 96.8 s | Time spent in the lighted compartment (naive rats (Wistar) [3]; 10 mg/kg i.p., 0-10 min): 171.9 s | Time spent in the lighted compartment (naive rats (Wistar) [3]; 10 mg/kg i.p., 5-10 min): 75.0 s | time spent in the lighted compartment compared with the control (naive rats (Wistar) [3]; 10 mg/kg, Student's t-test p<0.01): large and significant increase

CC12CC3CC(C)(C1)CC(N)(C3)C2 [Memantine, memantine]
Mean time spent in the central squares per time interval (naive rats (Wistar) [1]; [4]): 90.4 s | Vertical activity (naive rats (Wistar) [1]; 10 mg/kg i.p., 0-5 min): 11.33 | Mean time spent in the central squares per time interval (naive rats (Wistar) [1]; 10 mg/kg i.p., 0-10 min): 136.8 s | Vertical activity (naive rats (Wistar) [1]; 10 mg/kg i.p., 0-10 min): 16.00 | Mean time spent in the central squares per time interval (naive rats (Wistar) [1]; 10 mg/kg i.p., 0-120 min): 1874.8 s | Number of displacements (naive rats (Wistar) [1]; 10 mg/kg i.p., 0-120 min): 750 | Vertical activity (naive rats (Wistar) [1]; 10 mg/kg i.p., 0-120 min): 60.08 | Mean time spent in the central squares per time interval (naive rats (Wistar) [1]; 10 mg/kg i.p., 5-10 min): 46.3 s | Vertical activity (naive rats (Wistar) [1]; 10 mg/kg i.p., 5-10 min): 4.67 | drowsiness effect / overall activity level of the animals (naive rats (Wistar) [1]): decreases the overall activity level | Rat behavior over the period of time 1 to 6 minutes: frenetic movement (naive rats (Wistar) [2]; 1 mg/kg i.p.): 55.1 s | Rat behavior over the period of time 1 to 6 minutes: immobility (ies) (naive rats (Wistar) [2]; 1 mg/kg i.p.): 139.8 | Rat behavior over the period of time 1 to 6 minutes: frenetic movement (naive rats (Wistar) [2]; 3 mg/kg i.p.): 48.7 s | Rat behavior over the period of time 1 to 6 minutes: immobility (ies) (naive rats (Wistar) [2]; 3 mg/kg i.p.): 145.7 | Rat behavior over the period of time 1 to 6 minutes: frenetic movement (naive rats (Wistar) [2]; 10 mg/kg i.p.): 67.2 s | Rat behavior over the period of time 1 to 6 minutes: immobility (ies) (naive rats (Wistar) [2]; 10 mg/kg i.p.): 119.7 | immobility time compared with control (naive rats (Wistar) [2]): very significant (p<0.001) decrease | Time spent in the lighted compartment (naive rats (Wistar) [3]; 1 mg/kg i.p., 0-5 min): 34.2 s | Time spent in the lighted compartment (naive rats (Wistar) [3]; 1 mg/kg i.p., 0-10 min): 59.9 s | Time spent in the lighted compartment (naive rats (Wistar) [3]; 1 mg/kg i.p., 5-10 min): 25.7 s | Time spent in the lighted compartment (naive rats (Wistar) [3]; 3 mg/kg i.p., 0-5 min): 26.2 s | Time spent in the lighted compartment (naive rats (Wistar) [3]; 3 mg/kg i.p., 0-10 min): 34.3 s | Time spent in the lighted compartment (naive rats (Wistar) [3]; 3 mg/kg i.p., 5-10 min): 8.1 s | Time spent in the lighted compartment (naive rats (Wistar) [3]; 10 mg/kg i.p., 0-5 min): 31.0 s | Time spent in the lighted compartment (naive rats (Wistar) [3]; 10 mg/kg i.p., 0-10 min): 32.0 s | Time spent in the lighted compartment (naive rats (Wistar) [3]; 10 mg/kg i.p., 5-10 min): 0.9 s | time spent in the lighted compartment compared with the control (naive rats (Wistar) [3]; memantine 1, 3, 10 mg/kg): no effect was observed

— patent US11464751B2, “Use of fluoroethylnormemantine for the prevention and treatment of anxiety” (REST THERAPEUTICS, priority 2017, dated 2022)
